Experimental data from PMC11979685, “Synthesis of Derivatives of the Antibiotic Albicidin: The N‐Terminal Fragment as Key to Control Potency and Resistance Mediated by the Binding Protein AlbA” (Chemistry (Weinheim an Der Bergstrasse, Germany), 2025).
≈ marks a conversion by molar mass, not a printed value.

Legend:
bacterial DNA gyrase = target: bacterial DNA gyrase; set-up: method as in PMID 17074789; details: read-out: half maximum inhibitory concentration (IC50), DNA gyrase; cited from earlier work
[1] = tested on: Micrococcus luteus DSM 1790; assay: MIC determination (broth microdilution); assay type: cell-based; details: DSM1790, read-out: MIC M. luteus
Method: (§1) After completing the syntheses, the antibacterial activity of A‐variations 4–24 was assessed by determination of MIC values against a basic set of gram‐negative and gram‐positive bacteria (Table 1). The monocyclic derivatives 4–8 featuring a cyano‐, trifluoromethyl‐, methoxy‐ and fluoro‐ substituent in para‐position were very active against the gram–negative E. coli and S. typhimurium strains with MIC values in the same range as 3rd Gen albicidin 3 or ciprofloxacin which is the gold standard for gyrase inhibitors. […] These findings are in agreement with previous studies showing good activities for cyano, trifluoromethyl, methoxy and fluoro substituents in the para‐position of different aromatic rings in the building block A.[12, 13] The activity of the monocyclic derivatives 4–8 against the gram‐positive strains B. subtilis and M. luteus were similar but slightly less pronounced compared to the lead structure 3.
(§2) 1.1 Determination of Minimal Inhibitory Concentrations (MIC)
(§3) Minimal inhibitory concentration (MIC) against selected bacterial strains values were determined according to the ninth edition of the Approved Standard M07-A9.[1] 20 μL of cryo stocks of bacterial strains were suspended in 20 mL LB medium (Lysogeny broth: 10 g/L peptone, 5 g/L yeast extract, 5 g/L NaCl). Following incubation overnight at 37°C, 200 rpm, the test inoculum was adjusted by 0.5 McFarland Standard in cation adjusted Mueller-Hinton broth (BBLTM Mueller-Hinton Broth II, Becton, Dickinson and Company, New Jersey, USA) to approximately 1x10^6 CFU mL-1. 95 μL of the bacterial inoculum were applied per well of a 96-well plate. Albicidin and albicidin derivatives 3−24 were dissolved in DMSO (100%) to an initial concentration of 2560 μg/mL and serially diluted in DMSO (100%). Initial solution and serial dilutions of Ciprofloxacin were prepared in 0.1 N HCL, respectively. 5 μL of each antibiotic dilution were added to the microdilution tray to reach albicidin concentrations of 128 μg/mL to 0.016 μg/mL per well. One row of each well plate served as a growth control without antibiotic substances and another row of the microdilution tray served as sterility control (only MHB II - media). The antimicrobial effect of the solvent (DMSO) was tested by adding 5 μL DMSO to several wells. Purity check and cell titer control were performed according to International S tandard M07-A9 on Mueller-Hinton II Agar (Mueller Hinton II Broth, 15 g/L agar-agar). Both microdilution trays and agar plates were incubated at 30−37°C for 16 h and subsequently analyzed for growth inhibition by naked eye. The following primary panel of microorganisms were purchased from German Collection of Microorganisms and Cell Cultures (DSMZ):
(§4) Escherichia coli DSM 1116
(§5) Micrococcus luteus DSM 1790
(§6) Mycobacterium phlei DSM 750
(§7) Salmonella typhimurium TA100 was kindly provided by Prof. Dr. Vera Meyer (Technische Universität Berlin). […]
(§8) was purchased as part of the single gene knockout library of E. coli K12 BW25113 (Keio collection) from Horizon Discovery group plc (Cambridge, UK).

[2] = tested on: Mycobacterium phlei DSM 750; assay: MIC determination (broth microdilution); assay type: cell-based; details: Mycolicibacterium phlei, DSM750; read-out: MIC M. phlei
Method: as §1, §2, §3, §4, §5, §6, §7, §8

E. coli BW25113 = assay: MIC determination (broth microdilution); assay type: cell-based; details: Escherichia coli, BW25113; read-out: MIC E. coli BW25113
Method: as §1, §2, §3, §4, §5, §6, §7, §8

Bacillus subtilis DSM 10 = assay: MIC determination (broth microdilution); assay type: cell-based; details: DSM10, read-out: MIC B. sub.
Method: as §1, §2, §3, §4, §5, §6, §7, §8

[3] = tested on: Salmonella typhimurium TA100; assay: MIC determination (broth microdilution); assay type: cell-based; details: Salmonella enterica, read-out: MIC S. typh.
Method: as §1, §2, §3, §4, §5, §6, §7, §8

E. coli DSM1116 = assay: MIC determination (broth microdilution); assay type: cell-based; details: Escherichia coli, DSM1116; read-out: MIC E. coli DSM1116
Method: as §1, §2, §3, §4, §5, §6, §7, §8

[4] = Reverse-phase HPLC retention time as estimate of lipophilicity; assay type: physicochemical; details: indicator of lipophilicity
Description: As mentioned before, albicidin 1 is a rather hydrophobic compound and improving its aqueous solubility is desirable. The lipophilicity of drug molecules is commonly characterized by the octanol/water partition coefficient (logP). An alternative approach relies on the correlation between lipophilicity and the retention time (Rt) on a reverse‐phase HPLC column.[31] This approach works well if structurally related compounds are compared as is the case for this SAR study. Rt was thus used to estimate the hydrophilicity of albicidin 1 and its derivatives 2–24 (Table 1).[32]

E. coli = assay: MIC against E. coli in presence of 50 % human serum; assay type: cell-based; details: Escherichia coli; E. coli in presence of 50 % human serum; read-out: MICEc 50%HS
E. coli DNA gyrase = E. coli DNA gyrase (Escherichia coli, UniProt P0AES4); assay: E. coli gyrase DNA cleavage assay; assay type: biochemical; set-up: key to Gyrase inhibition strong+ / weak −: + strong inhibition; − weak inhibition in comparison to compound 16; details: for Gyrase inhibition strong+ / weak −: qualitative DNA cleavage assay at 1 μM and 10 μM, in comparison to compound 16
Method: The target activity of the synthesized derivatives was investigated using a DNA cleavage assay with purified and enzymatically active E. coli DNA gyrase[8] (see SI). In this assay, albicidin‐stabilized complexes of gyrase and plasmid DNA are trapped, and subsequently denatured and deproteinated to reveal DNA linearized by gyrase. […] For the best performing compounds, which were able to fully stabilize the cleavage complex at a concentration of 1 μM, the concentrations at half‐maximum cleavage (CC50) were determined (Figure 3).
1.2 Escherichia coli Gyrase Cleavage Inhibition Assay
E. coli gyrase cleavage assays were executed by setting up a master mix including 0.25 µg relaxed plasmid (pBR322) in 35 mM Tris-HCl (pH 7.5), 24 mM KCl, 4 mM MgCl2, 2 mM dithithreitol (DTT), 1.8 mM spermidine, 1 mM ATP, 6.5% (wt/vol) glycerol and 0.1 mg/ml bovine serum albumin per reaction.
Of this stock solution, 13.2 µL was aliquoted for each reaction into 1.5 mL Eppendorf tubes and supplemented with 0.3 µL of the appropriate compound dilution or DMSO with a […] DMSO concentration of 2% per reaction. The reactions were started with 1.5 µL of 50 nM (pre-screening) or 40 nM (IC50 determinations) wt E. coli gyrase in dilution buffer (50 mM Tris-HCl (pH 7.5), 100 mM KCl, 2 mM DTT, 1 mM EDTA, and 50% (wt/vol) glycerol) for a […] volume of 15 µL. Reactions were incubated at 37°C for 30 minutes before addition of 1.5 µL 0.2% (wt/vol) SDS and 0.75 µL proteinase K (0.2 mg/mL) and further incubation at 37°C for 30 minutes to trap cleavage complexes. Reactions were stopped with 15 µL chloroform:isoamyl alcohol (24: 1 v/v) and 15 µL of STEB (40% (wt/vol) sucrose, […] Tris-Cl pH 8, 10 mM EDTA, 0.5 mg/mL bromophenol blue). After brief vortexing and centrifugation at 2,300g for 5 min, 15 µL of the aqueous phase was loaded onto 1% (wt/vol) agarose in TAE (Tris-acetate […] and EDTA […]) gels supplemented with 10 µg/mL ethidium bromide.
The gels were run at 85 V for 2 hours.
DNA was visualized (602/50, UV Trans, auto optimal exposure) with a ChemiDoc MP (Bio-Rad Laboratories Inc., equipped with ImageLab Touch Software v2.0.0.27) and the percentage of cleaved DNA relative to the total amount of DNA per lane was determined with ImageJ software.[2] IC50 curves were generated in GraphPad Prism (v10.0.0) using the non-linear regression curve fit variable slope with four parameters and least squares regression.

Sequence of E. coli DNA gyrase (P0AES4 whole entry): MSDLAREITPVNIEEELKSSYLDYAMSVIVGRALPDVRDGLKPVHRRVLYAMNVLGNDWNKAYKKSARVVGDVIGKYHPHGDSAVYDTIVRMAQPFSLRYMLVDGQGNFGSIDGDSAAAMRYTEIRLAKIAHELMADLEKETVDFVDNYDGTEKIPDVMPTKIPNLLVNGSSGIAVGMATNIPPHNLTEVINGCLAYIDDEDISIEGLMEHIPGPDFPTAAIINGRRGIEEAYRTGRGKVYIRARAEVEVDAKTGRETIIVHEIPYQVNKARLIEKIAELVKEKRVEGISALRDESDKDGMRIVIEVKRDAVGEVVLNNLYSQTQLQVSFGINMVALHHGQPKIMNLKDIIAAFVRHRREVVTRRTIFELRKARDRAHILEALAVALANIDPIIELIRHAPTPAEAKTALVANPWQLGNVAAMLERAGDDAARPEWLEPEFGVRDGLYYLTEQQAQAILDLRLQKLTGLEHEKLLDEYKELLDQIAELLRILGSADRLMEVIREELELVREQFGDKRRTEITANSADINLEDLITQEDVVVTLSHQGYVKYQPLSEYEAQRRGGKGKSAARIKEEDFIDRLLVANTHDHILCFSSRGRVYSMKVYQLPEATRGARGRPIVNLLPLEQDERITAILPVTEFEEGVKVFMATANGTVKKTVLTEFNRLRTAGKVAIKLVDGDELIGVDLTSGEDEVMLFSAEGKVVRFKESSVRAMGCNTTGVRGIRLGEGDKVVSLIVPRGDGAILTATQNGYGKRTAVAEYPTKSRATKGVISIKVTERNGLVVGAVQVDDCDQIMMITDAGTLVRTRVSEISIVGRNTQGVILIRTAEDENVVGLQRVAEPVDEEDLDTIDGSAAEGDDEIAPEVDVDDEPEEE

Compound	IC50 (bacterial DNA gyrase)	MIC [1]	MIC [2]	MIC (E. coli BW25113)	MIC (Bacillus subtilis DSM 10)	MIC [3]	MIC (E. coli DSM1116)	Rt (retention time) [4]	MIC (E. coli)	Gyrase inhibition strong+ / weak − (E. coli DNA gyrase)	CC50 (E. coli DNA gyrase; E. coli gyrase DNA cleavage, read-out: CC50 (concentration at half-maximum cleavage))
COc1c(NC(=O)c2ccc(NC(=O)c3ccc(NC(=O)[C@H](CC#N)NC(=O)c4ccc(NC(=O)/C(C)=C/c5ccc(O)cc5)cc4)cc3)c(OC)c2O)ccc(C(=O)O)c1O [compound 1, albicidin]	40 nM										
COc1c(NC(=O)c2ccc(NC(=O)c3ccc(NC(=O)[C@H](Cc4c[nH]nn4)NC(=O)c4ccc(NC(=O)c5ccc(F)cn5)cc4)cn3)c(OC)c2O)ccc(C(=O)O)c1O [compound 7]		0.125 µg/mL (≈ 0.147 µM)	2 µg/mL (≈ 2.36 µM)	0.031 µg/mL (≈ 0.0365 µM)	0.125 µg/mL (≈ 0.147 µM)	≤ 0.016 µg/mL	0.031 µg/mL (≈ 0.0365 µM)	8.29 min	4 µg/mL	+	
COc1c(NC(=O)c2ccc(NC(=O)c3ccc(NC(=O)[C@H](Cc4c[nH]nn4)NC(=O)c4ccc(NC(=O)c5ccc([N+](=O)[O-])cn5)cc4)cn3)c(OC)c2O)ccc(C(=O)O)c1O [compound 8]		0.063 µg/mL (≈ 0.0719 µM)	2 µg/mL (≈ 2.28 µM)	0.125 µg/mL (≈ 0.143 µM)	0.25 µg/mL (≈ 0.285 µM)	0.063 µg/mL (≈ 0.0719 µM)	0.063 µg/mL (≈ 0.0719 µM)	8.30 min	8 µg/mL	+	
COc1c(NC(=O)c2ccc(NC(=O)c3ccc(NC(=O)[C@H](Cc4c[nH]nn4)NC(=O)c4ccc(NC(=O)c5ccc6cc(O)ccc6c5)cc4)cn3)c(OC)c2O)ccc(C(=O)O)c1O [compound 10]		0.031 µg/mL (≈ 0.0346 µM)	1 µg/mL (≈ 1.12 µM)	≤ 0.016 µg/mL	0.063 µg/mL (≈ 0.0703 µM)	≤ 0.016 µg/mL	0.016 µg/mL (≈ 0.0179 µM)	8.15 min	2 µg/mL	+	78 nM
